Experimental data taken from patent publication US10183021B2, “sGC stimulators” (Ironwood Pharmaceuticals, Inc., priority 2013, dated 2019).

Each compound was assayed against soluble guanylate cyclase (sGC) (Homo sapiens (Human), UniProt Q02108+Q02153) (assay: sGC-HEK-cGMP assay, new protocol with DETA-NONOate, LC/MS detection (Example 2C)). Details: HEK293 cells, 10 μM DETA-NONOate, LC/MS detection; concentration eliciting 50% of high control response (30 μM I-329); read-out: Absolute EC50 (uM) - binned.
soluble guanylate cyclase (sGC), sequence (Q02153 whole entry): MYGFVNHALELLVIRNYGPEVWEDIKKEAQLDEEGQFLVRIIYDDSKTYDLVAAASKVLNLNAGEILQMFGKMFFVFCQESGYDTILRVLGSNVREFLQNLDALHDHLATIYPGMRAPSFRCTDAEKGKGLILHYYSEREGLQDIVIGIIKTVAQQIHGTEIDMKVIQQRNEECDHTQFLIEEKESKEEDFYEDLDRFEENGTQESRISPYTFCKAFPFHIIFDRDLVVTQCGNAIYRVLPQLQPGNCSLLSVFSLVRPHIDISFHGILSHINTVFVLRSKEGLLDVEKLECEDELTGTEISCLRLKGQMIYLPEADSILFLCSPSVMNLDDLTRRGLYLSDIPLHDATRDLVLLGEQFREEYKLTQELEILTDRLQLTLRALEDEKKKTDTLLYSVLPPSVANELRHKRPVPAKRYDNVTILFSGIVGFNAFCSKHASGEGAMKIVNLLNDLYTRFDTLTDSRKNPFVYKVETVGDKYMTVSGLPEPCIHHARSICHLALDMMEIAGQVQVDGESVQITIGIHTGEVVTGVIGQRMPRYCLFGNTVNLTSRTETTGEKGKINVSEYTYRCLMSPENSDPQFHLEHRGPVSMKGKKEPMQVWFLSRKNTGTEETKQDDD
soluble guanylate cyclase (sGC), sequence (Q02108 whole entry): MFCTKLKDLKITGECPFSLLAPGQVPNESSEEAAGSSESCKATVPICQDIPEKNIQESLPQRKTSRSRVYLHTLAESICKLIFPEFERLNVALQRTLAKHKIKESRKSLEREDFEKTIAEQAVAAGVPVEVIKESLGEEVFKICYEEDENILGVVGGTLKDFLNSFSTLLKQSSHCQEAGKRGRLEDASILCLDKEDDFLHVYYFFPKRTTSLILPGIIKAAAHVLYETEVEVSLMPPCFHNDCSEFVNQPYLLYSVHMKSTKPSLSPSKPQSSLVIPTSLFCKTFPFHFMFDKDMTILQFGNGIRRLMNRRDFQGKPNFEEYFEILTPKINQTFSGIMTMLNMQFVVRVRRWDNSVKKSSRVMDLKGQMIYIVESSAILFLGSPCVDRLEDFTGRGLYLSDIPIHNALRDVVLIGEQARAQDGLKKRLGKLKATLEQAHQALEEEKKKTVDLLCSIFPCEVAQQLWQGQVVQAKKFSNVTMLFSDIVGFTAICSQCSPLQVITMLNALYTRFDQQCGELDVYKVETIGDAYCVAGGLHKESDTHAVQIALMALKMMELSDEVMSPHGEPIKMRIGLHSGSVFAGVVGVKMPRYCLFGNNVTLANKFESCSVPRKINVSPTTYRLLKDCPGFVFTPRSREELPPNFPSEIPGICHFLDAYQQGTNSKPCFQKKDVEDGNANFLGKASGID
Type: cell-based

Row | SMILES | EC50 [µM]
1 | O=C(Nc1ccnc(-c2cc(-c3ccon3)n(Cc3ccccc3F)n2)n1)c1cocn1 [Compound I-557] | > 1

Same assay, conditions: read-out: Absolute EC50 (uM) - binned

Row | SMILES | EC50 [µM]
2 | CC(=O)c1cc(-c2ncc(F)c(NCC(O)(C(F)(F)F)C(F)(F)F)n2)nn1Cc1ccccc1F [Compound I-362] | 0.101 to 1
3 | O=[N+]([O-])c1cnc(-c2cc(-c3ccon3)n(Cc3ccccc3F)n2)nc1NCC(O)(C(F)(F)F)C(F)(F)F [Compound I-483] | > 1
4 | O=S(=O)(CCC(F)(F)F)Nc1nc(-c2cc(-c3ccon3)n(Cc3ccccc3F)n2)ncc1F [Compound I-445] | 0.101 to 1
5 | Cc1cc(-c2ncc(F)c(N(C)CC3(C(=O)O)CC3)n2)nn1Cc1ccccc1F [Compound I-411] | 0.101 to 1
6 | C[C@@H]1CN(c2nc(-c3cc(-c4ccon4)n(Cc4ccccc4F)n3)ncc2F)C[C@@H]1C(=O)O [Compound I-314] | < 0.1
7 | OCCNc1nc(-c2cc(-c3ccon3)n(Cc3ccccc3F)n2)ncc1F [Compound I-407] | < 0.1
8 | CC(=O)c1cc(-c2ncc(F)c(NC(CO)CO)n2)nn1Cc1ccccc1F [Compound I-462] | > 1
9 | O=S(=O)(N1CC(Nc2nc(-c3cc(-c4ccon4)n(Cc4ccccc4F)n3)ncc2F)C1)C(F)(F)F [Compound I-394] | > 1
10 | C[C@H]1CCCN(c2nc(-c3cc(C#N)n(Cc4ccccc4F)n3)ncc2F)[C@H]1C(=O)O [Compound I-457] | 0.101 to 1
11 | O=C(Nc1ccnc(-c2cc(-c3ccon3)n(Cc3ccccc3F)n2)n1)C1(O)CC1 [Compound I-478] | < 0.1
12 | O=C(Nc1ccnc(-c2cc(-c3ccon3)n(Cc3ccccc3F)n2)n1)C(F)(F)F [Compound I-164] | 0.101 to 1
13 | CC(=O)NS(=O)(=O)CCNc1nc(-c2cc(-c3ccon3)n(Cc3ccccc3F)n2)ncc1F [Compound I-385] | 0.101 to 1
14 | O=C(CS(=O)(=O)c1ccc(Cl)cc1)Nc1ccnc(-c2cc(-c3ccon3)n(Cc3ccccc3F)n2)n1 [Compound I-593] | > 1
15 | O=C(Cc1nccs1)Nc1ccnc(-c2cc(-c3ccon3)n(Cc3ccccc3F)n2)n1 [Compound I-469] | 0.101 to 1
16 | NC(=O)CC(Nc1nc(-c2cc(-c3ccon3)n(Cc3ccccc3F)n2)ncc1F)C(F)(F)F (stereo not drawn) [Compound I-419] | > 1
17 | CC(C)NC(=O)NCC(=O)Nc1ccnc(-c2cc(-c3ccon3)n(Cc3ccccc3F)n2)n1 [Compound I-585] | 0.101 to 1
18 | COC(=O)Nc1nc(-c2cc(-c3ccon3)n(Cc3ccccc3F)n2)ncc1N [Compound I-542] | 0.101 to 1
19 | CC(=O)NNC(=O)C1(C)C(=O)Nc2nc(-c3cc(-c4ccon4)n(Cc4ccccc4F)n3)nc(N)c21 (stereo not drawn) [Compound I-623] | > 1
20 | O=C(O)C(Nc1nc(-c2cc(-c3ccon3)n(Cc3ccccc3F)n2)ncc1F)C(F)(F)F (stereo not drawn) [Compound I-403] | 0.101 to 1
21 | CS(=O)(=O)CCC(Nc1nc(-c2cc(-c3ccon3)n(CCC(F)(F)F)n2)ncc1F)C(F)(F)F (stereo not drawn) [Compound I-626] | > 1
22 | O=S(=O)(CCNc1nc(-c2cc(-c3ccon3)n(Cc3ccccc3F)n2)ncc1F)NO [Compound I-432] | < 0.1
23 | CC1(S(C)(=O)=O)CCN(c2nc(-c3cc(-c4ccon4)n(Cc4ccccc4F)n3)ncc2F)C1=O (stereo not drawn) [Compound I-526] | > 1
24 | COC(=O)CS(=O)(=O)Nc1ccnc(-c2cc(-c3ccon3)n(Cc3ccccc3F)n2)n1 [Compound I-510] | 0.101 to 1
25 | C[C@H](O)C(=O)Nc1ccnc(-c2cc(-c3ccon3)n(Cc3ccccc3F)n2)n1 [Compound I-576] | 0.101 to 1

Row | SMILES | EC50 [µM]
26 | O=C(Nc1ccnc(-c2cc(-c3ccon3)n(Cc3ccccc3F)n2)n1)C1CCCO1 (stereo not drawn) [Compound I-570] | 0.101 to 1
27 | COCCS(=O)(=O)Nc1ccnc(-c2cc(-c3ccon3)n(Cc3ccccc3F)n2)n1 [Compound I-479] | 0.101 to 1
28 | CC1(C(=O)Nc2ccnc(-c3cc(-c4ccon4)n(Cc4ccccc4F)n3)n2)CC1 [Compound I-569] | > 1
29 | O=C1OC(C(F)(F)F)CN1c1ccnc(-c2cc(-c3ccon3)n(Cc3ccccc3F)n2)n1 (stereo not drawn) [Compound I-482] | > 1
30 | O=C(NC(CO)CO)[C@@H](CO)Nc1nc(-c2cc(-c3ccon3)n(Cc3ccccc3F)n2)ncc1F [Compound I-336] | > 1
31 | CN(C[C@@H](O)CO)c1nc(-c2cc(-c3ccon3)n(Cc3ccccc3F)n2)ncc1F [Compound I-321] | < 0.1
32 | CCOC(=O)C1(C)C(=O)Nc2nc(-c3cc(-c4ccon4)n(CCC(F)(F)F)n3)nc(N)c21 (stereo not drawn) [Compound I-618] | > 1
33 | CN(Cc1nc(C(=O)O)cs1)c1nc(-c2cc(-c3ccon3)n(Cc3ccccc3F)n2)ncc1F [Compound I-373] | 0.101 to 1
34 | NS(=O)(=O)C1CCN(c2nc(-c3cc(-c4ccon4)n(Cc4ccccc4F)n3)ncc2F)C1 (stereo not drawn) [Compound I-427] | < 0.1
35 | CC(CCO)(C(=O)Nc1nc(-c2cc(-c3ccon3)n(Cc3ccccc3F)n2)ncc1F)S(C)(=O)=O (stereo not drawn) [Compound I-527] | 0.101 to 1
36 | COc1ccc(S(=O)(=O)Nc2nc(-c3cc(-c4ccon4)n(Cc4ccccc4F)n3)ncc2F)cc1OC [Compound I-614] | 0.101 to 1
37 | CN(c1nc(-c2cc(-c3ccon3)n(Cc3ccccc3F)n2)ncc1F)[C@@H]1CC[C@H](C(=O)O)C1 [Compound I-309] | < 0.1
38 | O=S1(=O)CCCN1c1nc(-c2cc(-c3ccon3)n(Cc3ccccc3F)n2)ncc1F [Compound I-503] | 0.101 to 1
39 | CS(=O)(=O)NCC(=O)Nc1ccnc(-c2cc(-c3ccon3)n(Cc3ccccc3F)n2)n1 [Compound I-543] | 0.101 to 1
40 | O=S(=O)(CC(F)(F)F)Nc1nc(-c2cc(-c3ccon3)n(Cc3ccccc3F)n2)ncc1F [Compound I-609] | > 1
41 | CC1(C(N)=O)CCN(c2nc(-c3cc(-c4ccon4)n(Cc4ccccc4F)n3)ncc2F)C1=O (stereo not drawn) [Compound I-606] | 0.101 to 1
42 | NCC(=O)Nc1ccnc(-c2cc(-c3ccon3)n(Cc3ccccc3F)n2)n1 [Compound I-520] | 0.101 to 1
43 | OCC(CC(F)F)Nc1nc(-c2cc(-c3ccon3)n(Cc3ccccc3F)n2)ncc1F (stereo not drawn) [Compound I-399] | < 0.1
44 | OCC(O)(CCl)CNc1nc(-c2cc(-c3ccon3)n(Cc3ccccc3F)n2)ncc1F (stereo not drawn) [Compound I-352] | < 0.1
45 | CCOC(=O)C1(C)CCN(c2nc(-c3cc(-c4ccon4)n(Cc4ccccc4F)n3)ncc2F)C1=O (stereo not drawn) [Compound I-591] | 0.101 to 1
46 | COC(=O)N(C)c1cnc(-c2cc(-c3ccon3)n(Cc3ccccc3F)n2)nc1 [Compound I-630] | > 1
47 | C[C@H]1CCCN(c2ccnc(-c3cc(-c4ccon4)n(Cc4ccccc4F)n3)n2)[C@H]1C(=O)O [Compound I-333] | < 0.1
48 | O=C(O)[C@H]1[C@@H](Nc2nc(-c3cc(-c4ccon4)n(Cc4ccccc4F)n3)ncc2F)[C@@H]2CC[C@H]1O2 (racemic) [Compound I-384] | > 1
49 | OC(CNc1ccnc(-c2cc(-c3ccon3)n(Cc3ccccc3F)n2)n1)(C(F)(F)F)C(F)(F)F [Compound I-500] | 0.101 to 1

Row | SMILES | EC50 [µM]
50 | CN(c1nc(-c2cc(-c3ccon3)n(Cc3ccccc3F)n2)ncc1F)S(C)(=O)=O [Compound I-629] | > 1
51 | CC(=O)Nc1ccnc(-c2cc(-c3ccon3)n(Cc3ccccc3F)n2)n1 [Compound I-524] | > 1
52 | Fc1ccccc1Cn1nc(-c2ncc(F)c(NCC3(c4ncc[nH]4)CC3)n2)cc1-c1ccon1 [Compound I-567] | > 1
53 | NC(=O)NCC(=O)Nc1ccnc(-c2cc(-c3ccon3)n(Cc3ccccc3F)n2)n1 [Compound I-584] | > 1
54 | O=C(Nc1ccnc(-c2cc(-c3ccon3)n(Cc3ccccc3F)n2)n1)c1cncs1 [Compound I-552] | > 1
55 | O=S(=O)(Cc1ccc(F)cc1)Nc1nc(-c2cc(-c3ccon3)n(Cc3ccccc3F)n2)ncc1F [Compound I-607] | 0.101 to 1
56 | N#CC1(C(=O)Nc2nc(-c3cc(-c4ccon4)n(Cc4ccccc4F)n3)ncc2F)CC1 [Compound I-460] | > 1
57 | NCCNc1nc(-c2cc(-c3ccon3)n(Cc3ccccc3F)n2)ncc1F [Compound I-391] | 0.101 to 1
58 | O=S(=O)(Nc1nc(-c2cc(-c3ccon3)n(Cc3ccccc3F)n2)ncc1F)c1cccnc1 [Compound I-625] | > 1
59 | O=C(CS(=O)(=O)c1ccccc1)Nc1ccnc(-c2cc(-c3ccon3)n(Cc3ccccc3F)n2)n1 [Compound I-592] | > 1
60 | Cc1cn(CC(=O)Nc2ccnc(-c3cc(-c4ccon4)n(Cc4ccccc4F)n3)n2)c(=O)[nH]c1=O [Compound I-571] | > 1
61 | COCCS(=O)(=O)Nc1nc(-c2cc(-c3ccon3)n(Cc3ccccc3F)n2)ncc1F [Compound I-446] | > 1
62 | CC1(C)CCN(c2ccnc(-c3cc(-c4ccon4)n(Cc4ccccc4F)n3)n2)C1=O [Compound I-494] | 0.101 to 1
63 | O=C1O[C@@H](CO)CN1c1nc(-c2cc(-c3ccon3)n(Cc3ccccc3F)n2)ncc1F [Compound I-575] | < 0.1
64 | CC1(C(N)=O)C(=O)Nc2nc(-c3cc(-c4ccon4)n(CCC(F)(F)F)n3)nc(N)c21 (stereo not drawn) [Compound I-619] | > 1
65 | NC(=O)C1(O)CCN(c2nc(-c3cc(-c4ccon4)n(Cc4ccccc4F)n3)ncc2F)CC1 [Compound I-438] | < 0.1
66 | O=C(Nc1nc(-c2cc(-c3ccon3)n(Cc3ccccc3F)n2)ncc1N1CCOCC1)C(O)(C(F)(F)F)C(F)(F)F [Compound I-468] | 0.101 to 1
67 | OC[C@@H](O)CN(CC1CC1)c1nc(-c2cc(-c3ccon3)n(Cc3ccccc3F)n2)ncc1F [Compound I-322] | < 0.1
68 | O=C1CCC(C(F)(F)F)N1c1nc(-c2cc(-c3ccon3)n(Cc3ccccc3F)n2)ncc1F (stereo not drawn) [Compound I-501] | > 1
69 | CC(O)CN(CC(C)O)c1nc(-c2cc(-c3ccon3)n(Cc3ccccc3F)n2)ncc1F (stereo not drawn) [Compound I-431] | < 0.1
70 | O=C(NS(=O)(=O)C1CCN(c2nc(-c3cc(-c4ccon4)n(Cc4ccccc4F)n3)ncc2F)CC1)C1CC1 [Compound I-425] | < 0.1
71 | C[C@H]1[C@@H](C(=O)O)CCCN1c1nc(-c2cc(-c3ccon3)n(Cc3ccccc3F)n2)ncc1F [Compound I-311] | 0.101 to 1
72 | O=C1Nc2nc(-c3cc(-c4ccon4)n(Cc4ccccc4F)n3)ncc2OC1(C(F)(F)F)C(F)(F)F [Compound I-492] | 0.101 to 1
